Results: patent US5147888A, “N-terminal indolyy indolylalkylaminodiol β-amino acid derivatives” (G. D. Searle & Co., priority 1991, dated 1992)
Square brackets hold non-standard residues; d marks the D form. Peptide text beside a SMILES is read from it. * marks the point of attachment. Sta = CC(C)C[C@H](N)[C@@H](O)CC(=O)O; Isovaleryl = CC(C)CC(=O)*

Tests used:
[1] = molecular target: T1, human renin (Homo sapiens, UniProt P00797); experiment: in vitro human renin inhibition assay (angiotensin I determined by radioimmunoassay); assay type: biochemical; conditions: pH 7.4, 37° C., two hours; for inhibition at 1 µM: 10^-6 M
T1 construct: purchased National Institute for Biological Standards, London
T1 sequence (P00797 67-406): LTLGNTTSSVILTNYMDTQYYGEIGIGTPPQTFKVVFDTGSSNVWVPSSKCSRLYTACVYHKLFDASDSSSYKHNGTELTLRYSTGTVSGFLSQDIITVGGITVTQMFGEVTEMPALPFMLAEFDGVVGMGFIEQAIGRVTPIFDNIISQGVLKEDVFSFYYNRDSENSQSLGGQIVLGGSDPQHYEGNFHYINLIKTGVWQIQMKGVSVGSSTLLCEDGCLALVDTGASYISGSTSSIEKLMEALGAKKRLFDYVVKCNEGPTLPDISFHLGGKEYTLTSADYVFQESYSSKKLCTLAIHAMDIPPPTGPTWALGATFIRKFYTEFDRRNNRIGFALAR
Procedure: Compounds of Formula I were evaluated as inhibitors of human renin in an in vitro assay. This human renin inhibition test has been previously described in detail [Papaioannou et al., Clinical and Experimental Hypertension, A7(9), 1243-1257 (1985)]. Human renin was obtained from the National Institute for Biologivcal Standards, London. An incubation mixture was prepared containing in a total volume of 0.25 mL 100 mM Tris-acetate buffer at pH 7.4, 25×10^-6 Goldblatt units of renin, 0.05 mL of plasma from human volunteers taking oral contraceptives,6.0 mM sodium EDTA, 2.4 mM phenylmethyl sulfonyl fluoride, 1.5 mM 8-hydroxyquinoline, 0.4 mg/mL BSA, and 0.024 mg/mL neomycin sulfate. This mixture was incubated for two hours at 37° C. in the presence or absence of renin inhibitors. The produced angiotensin I was determined by radioimmunoassay (New England Nuclear kit). Test compounds to be assayed were dissolved in DMSO and diluted with 100 mM Tris-acetate buffer at pH 7.4 containing 0.5% BSA to the appropriate Concentration. The final concentration of organic solvent in the reaction mixture was less than 1%. Control incubations at 37° C. were used to correct for effects of organic solvent on renin activity.

[2] = system: hog renin; conditions: after the injection of hog renin into nephrectomized rats; cited from earlier work
[3] = system: pepsin; conditions: cited from earlier work
[4] = system: cathepsin D; conditions: cited from earlier work
[5] = system: renin; conditions: cited from earlier work

Structure (SMILES)	IC50 [1]	also measured
CC(C)C[C@H](O)[C@H](O)[C@H](CC1CCCCC1)NC(=O)[C@H](C)CN(C)C(=O)CCCC1CCCCC1 (relative stereo) [Example 12, N-[3-[[1S,1R*-(cyclohexylmethyl)-2S*,3R*-dihydroxy-5-methylhexyl]amino]-2S*-methyl-3-oxopropyl]-N-methyl-cyclohexanebutanamide]		inhibition at 1 µM [1]: 23%
CC(C)C[C@H](O)[C@H](O)[C@H](CC1CCCCC1)NC(=O)[C@H](C)CNC(=O)c1cc2ccccc2[nH]1 (relative stereo) [Example 7, N-[3-[[1S,1R*-(cyclohexylmethyl)-2S*,3R*-dihydroxy-5-methylhexyl]amino]-2S*-methyl-3-oxopropyl]-1H-indole-2-carboxamide]	26 nM	
CC(C)CC(=O)N[C@H](C(=O)N[C@H](C(=O)N[C@@H](CC(C)C)[C@@H](O)CC(=O)N[C@@H](C)C(=O)N[C@@H](CC(C)C)[C@@H](O)CC(=O)O)C(C)C)C(C)C [pepstatin] (Isovaleryl-VV[Sta]A[Sta]-OH)		blood pressure reduction in vivo [2]: reduce blood pressure; inhibitor of aspartyl proteases: pepsin [3]: inhibitor; inhibitor of aspartyl proteases: cathepsin D [4]: inhibitor; inhibitor of aspartyl proteases: renin [5]: inhibitor
CC(C)C[C@H](O)[C@H](O)[C@H](CC1CCCCC1)NC(=O)[C@H](C)CNC(=O)CCCC1CCCCC1 (relative stereo) [Example 11, N-[3-[[1S,1R*-(cyclohexylmethyl)-2S*,3R*-dihydroxy-5-methylhexyl]amino]-2S*-methyl-3-oxopropyl]cyclohexane-butanamide]	180 nM	
CC(C)C[C@H](O)[C@H](O)[C@H](CC1CCCCC1)NC(=O)[C@H](C)CNC(=O)c1c[nH]c2ccccc12 [Example 20, N-[3-[[1S,1R*-(cyclohexylmethyl)-2S*,3R*-dihydroxy-5-methylhexyl]amino]-2S*-methyl-3-oxopropyl]-1H-indole3-carboxamide]		inhibition at 10 µM ([1]; 10^-5 M): 27%
COc1ccc(CCC(=O)NC[C@@H](C)C(=O)N[C@@H](CC2CCCCC2)[C@@H](O)[C@@H](O)CC(C)C)cc1 [Example 13, N-[3-[[1S,1R*-(cyclohexylmethyl)-2S*,3R*-dihydroxy-5-methylhexyl]amino]-2S*-methyl-3-oxopropyl]-4-methoxybenzenepropanamide]		inhibition at 0.5 µM ([1]; 5 × 10^-7 M): 30%
CC(C)C[C@H](O)[C@H](O)[C@H](CC1CCCCC1)NC(=O)[C@H](C)CNC(=O)Cc1c[nH]c2ccccc12 [Example 21, N-[3-[[1S,1R*-(cyclohexylmethyl)-2S*,3R*-dihydroxy-5-methylhexyl]amino]-2S*-methyl-3-oxopropyl]-1H-indole3-acetamide]		inhibition at 1 µM [1]: 30%
CC(C)C[C@H](O)[C@H](O)[C@H](CC1CCCCC1)NC(=O)[C@H](C)CNC(=O)c1coc2ccccc2c1=O [Example 25, N-[3-[[1S,1R*-(cyclohexylmethyl)-2S*,3R*-dihydroxy-5-methyhexyl]amino]-2S*- methyl-3-oxopropyl]-4-oxo-4H-1-benzopyran-3-carboxamide]	1100 nM	
CC(C)C[C@H](O)[C@H](O)[C@H](CC1CCCCC1)NC(=O)[C@H](C)CN(C)C(=O)CCCc1ccccc1 (relative stereo) [Example 10, N-[3-[[1S,1R*-(cyclohexylmethyl)-2S*,3R*-dihydroxy-5-methylhexyl]amino-]-2S*-methyl-3-oxopropyl]-N-methyl-benzenebutanamide]	115 nM	
CC(C)C[C@H](O)[C@H](O)[C@H](CC1CCCCC1)NC(=O)[C@H](C)CNC(=O)c1cc2cccc(Cl)c2o1 [Example 23]	1800 nM	
CC(C)C[C@H](O)[C@H](O)[C@H](CC1CCCCC1)NC(=O)[C@H](C)CNC(=O)c1cc(=O)c2ccccc2o1 [Example 26, N-[3-[[1S,1R*-(cyclohexylmethyl)-2S*,3R*-dihydroxy-5-methylhexyl]amino]-2S*-methyl-3-oxopropyl]-4-oxo-4H-1-benzopyran-2-carboxamide]	520 nM	
CCn1cc(C(=O)NC[C@@H](C)C(=O)N[C@@H](CC2CCCCC2)[C@@H](O)[C@@H](O)CC(C)C)c(=O)c2ccc(C)nc21 [Example 16, N-[3-[[1S,1R*-(cyclohexylmethyl)-2S*,3R*-dihydroxy-5-methylhexylamino]amino]-2S*-methyl-3-oxopropyl-nalidixylamide]	450 nM	

Continued, in another order:

IC50 [1]	Structure (SMILES)	also measured
3000 nM	COc1cccc2cc(C(=O)NC[C@@H](C)C(=O)N[C@@H](CC3CCCCC3)[C@@H](O)[C@@H](O)CC(C)C)oc12 [Example 24, N-[3-[[1S,1R*-(cyclohexylmethyl)-2S*,3R*-dihydroxy-5-methylhexyl]amino]-2S*-methyl-3-oxopropyl]-7-methoxy-benzofuran-2-carboxamide]	
30 nM	CC(C)C[C@H](O)[C@H](O)[C@H](CC1CCCCC1)NC(=O)[C@H](C)CNC(=O)CCc1c[nH]c2ccccc12 [Example 22, N-[3-[[1S,1R*-(cyclohexylmethyl)-2S*,3R*-dihydroxy-5-methylhexyl]amino]-2S*-methyl-3-oxopropyl]-1H-indole3-propanamide]	
125 nM	CC(C)C[C@H](O)[C@H](O)[C@H](CC1CCCCC1)NC(=O)[C@H](C)CNC(=O)CCCc1ccccc1 (relative stereo) [Example 6, N-[3-[[1S,1R*-(cyclohexylmethyl)-2S*,3R*-dihydroxy-5-methylhexyl]amino]-2S*-methyl-3-oxopropyl]benzenebutanamide]	
